{"source": "paper PMC3156899", "about": "(Clinical cancer research : an official journal of the …, 2011)", "test_system": "pp65#23-specific CD4+ T cells", "assay": "Cytokine ELISPOT / ELISA of pp65#23-specific CD4+ T cells", "assay_type": "cell-based, human", "data": [{"substance": "221DQYVKVYLESFCEDVPSGKL240 [pp65#23]", "values": [{"measurement": "IL-10 and IL-17 secretion", "setting": "IL-10 ELISPOT, IL-17 ELISA (limit of detection 15.0 pg/ml)", "value": "no IL-10 or IL-17 was detected"}, {"measurement": "IFN-γ and IL-4 secretion (ELISPOT)", "setting": "antigen-specific, T2/DP4 pulsed with peptide, Figure 3B", "value": "predominantly secreted IFN-γ and much less IL-4"}, {"measurement": "IL-2 production (ELISPOT)", "setting": "upon stimulation, Figure 3B", "value": "produced IL-2"}]}]}
